Like-named read-outs stand apart in the source and are kept apart here.
Assays:
Normal cells = experiment: Apoptosis of normal cells; type: cell-based
Protocol: Cells ([…] were incubated in 10 ml IMDM plus […] heat-inactivated fetal calf serum. Samples were incubated for 24 hours with various concentrations of drugs. Control samples received the same amount of media, without drug addition. After 24 hours of incubation the samples were pelleted and fixed in ethanol […] for 15 minutes at 4° C.; after three washes in PBS, the cells were treated with RNase I 0.5 mg/ml for 15 minutes at 37° C. The cells were harvested by centrifugation and resuspended in 50 μg/ml propidium iodide in PBS. Analysis (upon acquisition of 10,000-20,000 events) was performed on a FACscan flow cytometer with the FL2 detector in logarithmic mode, using Lysis II software (Becton Dickinson). Apoptotic cells were located in the hypodiploid region of the histogram, due to chromosome condensation and fragmentation.
For evaluation of apoptosis by flow cytometry, cells were fixed and permeabilized in 1% paraformaldehyde and ice-cold 70% ethanol. Digoxigenin-dUTP was incorporated at the 3′OH ends of the fragmented DNA in the presence of terminal deoxynucleotidyltranserase, and the cells were incubated with FITC-labeled anti-digoxigenin-dUTP and with propidium iodide. Green (apoptotic cells) and orange (total DNA) fluorescence were measured with a FACScan flow cytometer and analyzed with LYSIS II and CELLFIT programs. Data were analyzed by Student's t-test. P values were considered significant when <0.05. […]

cancer cells = experiment: Inhibition of tumor cell proliferation; type: cell-based; conditions: Homo sapiens; 1 μg/ml drug, 72 hours; read-out: Inhibition (%) of growth of cancer cells
Protocol: Human tumor cell lines: Hela leukemia HL-60, malignant melanocarcinoma B 16, oral epidermoid carcinoma (KB), lung carcinoma (A549), breast carcinoma MCF-7, adenocarcinoma of stomach.
Animal tumor cell lines: Walker carcinoma, LLC-WRC-256, malignant melanoma (RMMI 1846), 3T3, and S-1 80 sarcoma (CCRF-180). All lines were routinely cultured in the RPMI1640 medium supplemented 20% fetal calf serum. The experiment was carried out in 96 microplate, each well had 5×10^5 cells and given desired concentration of 1 μg/ml (1×10^−6 g/ml) drug. Then the plate was incubated at 37° C. in an atmosphere of humidified air enriched with 5 percent carbon dioxide for 72 hours. Inhibition percent rate of tumor cell proliferation was obtained according to the bellow formula. [formula]

L615 transplanted tumor = experiment: Growth of transplanted tumor in mice; type: in vivo; conditions: intraperitoneally, sacrificed on the 12th day
Protocol: Male mice, weight 20-22 g, were used in the experiment. 1×10^7 tumor cells were injected to mouse and other drugs injected intraperitoneally began second day. All mice were sacrificed on the 12th day, isolated the tumor and weighed and calculated the inhibition rate of tumor weight.
The effect of other drugs and HHT on the growth of animal transplanted tumor as illustrated by the Table 6.20 mg/kg of other drugs could inhibit the growth of L615 transplanted tumor.

carcinogen-DNA binding = experiment: Inhibition of carcinogen-DNA binding; type: cell-based
Protocol: Cells were maintained in 75-cm^2 tissue culture flask with media supplemented with retinoic acid (0.1 μg/ml) and epinephrine (0.5 μg/ml). The cells were passage when they reached approximately 80% confluence and were maintained at 37° C. in 5% CO2. Cells were plated at a density of 5×10^5 cells/well in 6-well tissue culture plates and allowed to incubated for 18 h at 37° C. in 5% CO2. Following incubation, the DNA was harvested and resuspended in Tris-EDTA buffer. RNA was removed by treating with RNase T1 and RNase A at 37° C. for 1 h. An aliquot was used for determining the DNA content by the absorbency at 260 nm, and the rest of the sample was used to determine the radioactivity; the percentage inhibition of carcinogen-DNA binding was determined by measuring the cpm/mg of DNA in the carcinogen.

[1] = Toxic dose for mice (LD50); type: in vivo
[2] = dog, in vivo
From the text: Twenty normal adult dogs which weight approximately 10 kg±1 kg used in experiments.
Most deaths were caused by cardiac dysfunction.

[3] = system: salmonella typhimurium strains TA97, TA98 and TA100; experiment: Salmonella mutagenicity assay, overall conclusion; conditions: conclusion from Table 14
Protocol: The method for detecting mutagenicity of HHT, with the Salmonella system that detects the reversion of the bacteria from His^− to His^+, is widely used.
The bacterial tester strains used for mutagenesis testing are TA97, TA98, TA100 and TA102. Mutagenesis testing method was done as described previously ^[77-88]. In brief, TA97, TA98, TA100 and TA102 were grown in agar gel culture. The petri plats (100×15 mm style) contain 30 ml with 2% glucose. The agar mixture was agitated vigorously and immediately poured into plates of minimal agar. The cultures were incubated at 37° C. in a dark and 5% CO2 in air for 48 hours. After 48 hours the colonies in both test and controls are counted. The presence of a background lawn of bacteria on the histidine-poor soft agar plate was used as an indication that gross toxic effects were absent. Mutagenicity assays were carried out at least in triplicate.
The range of spontaneous mutation rates for the individual strains, which were considered to be acceptable, was TA97 (100-170), TA98 (20-40) and TA100 (80-150).

With `COC(=O)C[C@](O)(CCCC(C)(C)O)C(=O)O[C@@H]1C(OC)=C[C@]23CCCN2CCc2cc4c(cc2[C@H]13)OCO4` [HHT, Homoharringtonine] the “Apoptosis (%)” value (Normal cells; HHT 10 ng/ml) was 16.5 ± 2.0 %, the “Apoptosis (%)” value (Normal cells; HHT 50 ng/ml) was 18.5 ± 2.5 % and the “Apoptosis (%)” value (Normal cells; HHT 100 ng/ml) was 22.0 ± 3.5 %. For the same molecule, the “Apoptosis (%)” value (Normal cells; HHT 500 ng/ml) was 29.5 ± 5.2 %, the “Apoptosis (%)” value (Normal cells; Table 4, HHT (50 ng/ml) alone or in combination) was 18.5 ± 2.5% and the inhibition at 1 µg/mL (cancer cells) was 73.8 ± 8.1%. The “Inhibition (%) of transplanted tumor (tumor weight)” value (L615 transplanted tumor) was 68 ± 7.2%, the “Inhibition (%) of carcinogen-DNA binding” value (carcinogen-DNA binding) was 56.8 ± 6.2% and the mice died ([1]; 38 normal mice, 2 mg/kg/day×5, observation period of 5 days) was “about 50%”. The LD50 ([1]; mouse, in vivo, ip, mice, I.P.) was 3.17 ± 0.19 mg/kg, the “major target organs involved in toxicity” value [2] was “limited to G.I. tract, heart and hematopoietic organs” and the reversibility of toxicities [2] was “completely reversible upon discontinuation of treatment”. For the same molecule, the “Abnormality of ECG, ST-T” value ([2]; 0.1 mg/kg/day) was “−”, the Anorexia ([2]; 0.1 mg/kg/day) was “+” and the Cardiac necrosis ([2]; 0.1 mg/kg/day) was “−”. For the same molecule, the Diarrhea ([2]; 0.1 mg/kg/day) was “±”, the Hepatic ecchymosis ([2]; 0.1 mg/kg/day) was “−” and the “Hepatic fibrosis and cirrhosis” value ([2]; 0.1 mg/kg/day) was “−”. The Hepatic necrosis ([2]; 0.1 mg/kg/day) was “−”, the Marrow depression ([2]; 0.1 mg/kg/day) was “+” and the Renal necrosis ([2]; 0.1 mg/kg/day) was “−”. The Renal toxic nephropathy ([2]; 0.1 mg/kg/day) was “−”, the Seminal depression ([2]; 0.1 mg/kg/day) was “−” and the Spleen necrosis ([2]; 0.1 mg/kg/day) was “−”. For the same molecule, the Vomiting ([2]; 0.1 mg/kg/day) was “+”, the “Abnormality of ECG, ST-T” value ([2]; 0.2 mg/kg/day) was “±” and the Anorexia ([2]; 0.2 mg/kg/day) was “++”. The Cardiac necrosis ([2]; 0.2 mg/kg/day) was “−”, the Diarrhea ([2]; 0.2 mg/kg/day) was “+” and the Hepatic ecchymosis ([2]; 0.2 mg/kg/day) was “−”. The “Hepatic fibrosis and cirrhosis” value ([2]; 0.2 mg/kg/day) was “−”, the Hepatic necrosis ([2]; 0.2 mg/kg/day) was “±” and the Marrow depression ([2]; 0.2 mg/kg/day) was “+”. The Renal necrosis ([2]; 0.2 mg/kg/day) was “−”, the Renal toxic nephropathy ([2]; 0.2 mg/kg/day) was “−” and the Seminal depression ([2]; 0.2 mg/kg/day) was “−”. For the same molecule, the Spleen necrosis ([2]; 0.2 mg/kg/day) was “−”, the Vomiting ([2]; 0.2 mg/kg/day) was “+” and the “Abnormality of ECG, ST-T” value ([2]; 0.3 mg/kg/day) was “+”. For the same molecule, the Anorexia ([2]; 0.3 mg/kg/day) was “+++”, the Cardiac necrosis ([2]; 0.3 mg/kg/day) was “±” and the Diarrhea ([2]; 0.3 mg/kg/day) was “+”. For the same molecule, the Erythrocyte count ([2]; 0.3 mg/kg/day) was 3.40 ×10^6/mm^3, the Hepatic ecchymosis ([2]; 0.3 mg/kg/day) was “±” and the “Hepatic fibrosis and cirrhosis” value ([2]; 0.3 mg/kg/day) was “±”. The Hepatic necrosis ([2]; 0.3 mg/kg/day) was “+”, the Marrow depression ([2]; 0.3 mg/kg/day) was “++” and the Renal necrosis ([2]; 0.3 mg/kg/day) was “±”. For the same molecule, the Renal toxic nephropathy ([2]; 0.3 mg/kg/day) was “±”, the Seminal depression ([2]; 0.3 mg/kg/day) was “−” and the Spleen necrosis ([2]; 0.3 mg/kg/day) was “±”. For the same molecule, the Vomiting ([2]; 0.3 mg/kg/day) was “++” and the “carcinogenic and mutagenic action” value [3] was “no carcinogenic and mutagenic action”.

Reference: patent US20070059385A1, “Safe pharmaceutical composition for treating and preventing cancer and method of use” (priority 2005, published 2007)
